Measured values: patent publication US8076487B2, “Pyridone derivative and herbicide” (Kumiai Chemical Industry Co., Ltd., priority 2006, dated 2011)

Key:
Assay type in all cases: in vivo
[1] = test system: Japanese bulrush (Scirpus juncoides Roxb.); experiment: Test Example 1: herbicidal effect by soil application to paddy field; settings: paddy field soil application; active ingredient 1,000 g per 1 hectare; wettable powder added dropwise to water surface the day after sowing; examined on the 21st day after application
In short: (§1)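 Plants were sown in flooded (3 cm) paddy soil and evaluated for herbicidal effect 21 days after soil application in a greenhouse.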

[2] = test system: early watergrass (Echinochloa oryzicola Vasing); experiment: as above; settings: paddy field soil application; active ingredient 1,000 g per 1 hectare; wettable powder added dropwise to water surface the day after sowing; examined on the 21st day after application
In short: as §1

[3] = test system: heartshape false pickerelweed (Monochoria vaginalis (Burm.f.) C.Presl); experiment: as above; settings: paddy field soil application; active ingredient 1,000 g per 1 hectare; wettable powder added dropwise to water surface the day after sowing; examined on the 21st day after application
In short: as §1

[4] = test system: barnyardgrass (Echinochloa crus-galli (L.) P. Beauv. var. crus-galli); experiment: Test Example 2: herbicidal effect by soil application to upland field; settings: soil surface spray, upland field soil, 1,000 g active ingredient per hectare, 21st day after application
In short: (§2)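 A standard visual rating of herbicidal effect, made 21 days after treatment, gives the value. Treatment consisted of a uniform spray of water-diluted wettable powder on the soil covering newly sown seeds, equivalent to 1,000 g active ingredient and 1,000 liters per hectare.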

[5] = test system: green foxtail (Setaria viridis (L.) P. Beauv.); experiment: as above; settings: soil surface spray, upland field soil, 1,000 g active ingredient per hectare, 21st day after application
In short: as §2

[6] = test system: slender amaranth (Amaranthus viridis L.); experiment: as above; settings: soil surface spray, upland field soil, 1,000 g active ingredient per hectare, 21st day after application
In short: as §2

[7] = test system: velvetleaf (Abutilon theophrasti medicus); experiment: as above; settings: soil surface spray, upland field soil, 1,000 g active ingredient per hectare, 21st day after application
In short: as §2

[8] = test system: barnyardgrass (Echinochloa crus-galli (L.) P. Beauv. var. crus-galli); experiment: Test Example 3: herbicidal effect by application to upland field (foliage treatment); settings: 14th day after application; for herbicidal effect (index), Barnyardgrass: foliage treatment, plants grown two weeks, 1,000 g active ingredient per hectare; for herbicidal effect, Barnyardgrass: foliage treatment, 1,000 g active ingredient per 1 hectare, greenhouse
In short: (§3)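 Seeds went into pots of field soil and grew under glass for two weeks. The whole plant was then sprayed from above with diluted wettable powder delivering 1,000 g/ha of active ingredient. Plants stayed in the greenhouse, and injury was graded against a standard 14 days after spraying.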

[9] = test system: green foxtail (Setaria viridis (L.) P. Beauv.); experiment: as above; settings: 14th day after application; for herbicidal effect (index), Green Foxtail: foliage treatment, plants grown two weeks, 1,000 g active ingredient per hectare; for herbicidal effect, Green Foxtail: foliage treatment, 1,000 g active ingredient per 1 hectare, greenhouse
In short: as §3

[10] = test system: slender amaranth (Amaranthus viridis L.); experiment: as above; settings: 14th day after application; for herbicidal effect (index), Slender Amaranth: foliage treatment, plants grown two weeks, 1,000 g active ingredient per hectare; for herbicidal effect, Slender Amaranth: foliage treatment, 1,000 g active ingredient per 1 hectare, greenhouse
In short: as §3

[11] = test system: velvetleaf (Abutilon theophrasti medicus); experiment: as above; settings: 14th day after application; for herbicidal effect (index), Velvetleaf: foliage treatment, plants grown two weeks, 1,000 g active ingredient per hectare; for herbicidal effect, Velvetleaf: foliage treatment, 1,000 g active ingredient per 1 hectare, greenhouse
In short: as §3

| Compound | herbicidal effect, Scirpus juncoides Roxb. [1] | herbicidal effect, Echinochloa oryzicola Vasing [2] | herbicidal effect, Monochoria vaginalis (Burm. f.) C. Presl [3] | herbicidal effect (index), Barnyardgrass [4] | herbicidal effect (index), Green Foxtail [5] | herbicidal effect (index), Slender Amaranth [6] | herbicidal effect (index), Velvetleaf [7] | herbicidal effect (index), Barnyardgrass [8] | herbicidal effect (index), Green Foxtail [9] | herbicidal effect (index), Slender Amaranth [10] | herbicidal effect (index), Velvetleaf [11] | herbicidal effect, Barnyardgrass [8] | herbicidal effect, Green Foxtail [9] | herbicidal effect, Slender Amaranth [10] | herbicidal effect, Velvetleaf [11] |
| --- | --- | --- | --- | --- | --- | --- | --- | --- | --- | --- | --- | --- | --- | --- | --- |
| O=C1CCCC(O)=C1C(=O)c1ccc(C(F)(F)F)n(CC2CC2)c1=O [I-20] | 5 (90% or more of herbicidal effect and crop phytotoxicity) | 5 (90% or more of herbicidal effect and crop phytotoxicity) | 5 (90% or more of herbicidal effect and crop phytotoxicity) | 5 (90% or more of herbicidal effect and crop phytotoxicity) | 5 (90% or more of herbicidal effect and crop phytotoxicity) | 5 (90% or more of herbicidal effect and crop phytotoxicity) | 5 (90% or more of herbicidal effect and crop phytotoxicity) | 5 (90% or more of herbicidal effect and crop phytotoxicity) | 5 (90% or more of herbicidal effect and crop phytotoxicity) | 5 (90% or more of herbicidal effect and crop phytotoxicity) | 5 (90% or more of herbicidal effect and crop phytotoxicity) | – | – | – | – |
| CCCS(=O)(=O)Oc1c(C(=O)c2ccc(C(F)(F)F)n(-c3ccc(OC)c(F)c3)c2=O)cnn1C [IV-93] | 5 (90% or more of herbicidal effect and crop phytotoxicity) | 5 (90% or more of herbicidal effect and crop phytotoxicity) | 5 (90% or more of herbicidal effect and crop phytotoxicity) | 5 (90% or more of herbicidal effect and crop phytotoxicity) | 4 (70 to less than 90% of herbicidal effect and crop phytotoxicity) | 5 (90% or more of herbicidal effect and crop phytotoxicity) | 5 (90% or more of herbicidal effect and crop phytotoxicity) | – | – | – | – | 4 (70 to less than 90% of herbicidal effect and crop phytotoxicity) | 4 (70 to less than 90% of herbicidal effect and crop phytotoxicity) | 5 (90% or more of herbicidal effect and crop phytotoxicity) | 4 (70 to less than 90% of herbicidal effect and crop phytotoxicity) |
| CCCS(=O)(=O)Oc1c(C(=O)c2ccc(C(F)(F)F)n(CC3CC(C)=NO3)c2=O)cnn1CC (centres unmarked) [IV-106] | 5 (90% or more of herbicidal effect and crop phytotoxicity) | 5 (90% or more of herbicidal effect and crop phytotoxicity) | 5 (90% or more of herbicidal effect and crop phytotoxicity) | 5 (90% or more of herbicidal effect and crop phytotoxicity) | 5 (90% or more of herbicidal effect and crop phytotoxicity) | 5 (90% or more of herbicidal effect and crop phytotoxicity) | 5 (90% or more of herbicidal effect and crop phytotoxicity) | – | – | – | – | 5 (90% or more of herbicidal effect and crop phytotoxicity) | 5 (90% or more of herbicidal effect and crop phytotoxicity) | 5 (90% or more of herbicidal effect and crop phytotoxicity) | 5 (90% or more of herbicidal effect and crop phytotoxicity) |
| CS(=O)(=O)CCn1c(C(F)(F)F)ccc(C(=O)C2=C(O)CCCC2=O)c1=O [I-67] | 5 (90% or more of herbicidal effect and crop phytotoxicity) | 5 (90% or more of herbicidal effect and crop phytotoxicity) | 5 (90% or more of herbicidal effect and crop phytotoxicity) | 5 (90% or more of herbicidal effect and crop phytotoxicity) | 5 (90% or more of herbicidal effect and crop phytotoxicity) | 5 (90% or more of herbicidal effect and crop phytotoxicity) | 5 (90% or more of herbicidal effect and crop phytotoxicity) | 5 (90% or more of herbicidal effect and crop phytotoxicity) | 5 (90% or more of herbicidal effect and crop phytotoxicity) | 5 (90% or more of herbicidal effect and crop phytotoxicity) | 5 (90% or more of herbicidal effect and crop phytotoxicity) | – | – | – | – |
| CCCS(=O)(=O)Cn1c(C(F)(F)F)ccc(C(=O)C2=C(O)CCCC2=O)c1=O [I-51] | 5 (90% or more of herbicidal effect and crop phytotoxicity) | 5 (90% or more of herbicidal effect and crop phytotoxicity) | 5 (90% or more of herbicidal effect and crop phytotoxicity) | 5 (90% or more of herbicidal effect and crop phytotoxicity) | 5 (90% or more of herbicidal effect and crop phytotoxicity) | 5 (90% or more of herbicidal effect and crop phytotoxicity) | 5 (90% or more of herbicidal effect and crop phytotoxicity) | 5 (90% or more of herbicidal effect and crop phytotoxicity) | 5 (90% or more of herbicidal effect and crop phytotoxicity) | 5 (90% or more of herbicidal effect and crop phytotoxicity) | 5 (90% or more of herbicidal effect and crop phytotoxicity) | – | – | – | – |
| C[S+]([O-])CCn1c(C(F)(F)F)ccc(C(=O)C2=C(O)C3CCC(C3)C2=O)c1=O (centres unmarked) [III-29] | 5 (90% or more of herbicidal effect and crop phytotoxicity) | 5 (90% or more of herbicidal effect and crop phytotoxicity) | 5 (90% or more of herbicidal effect and crop phytotoxicity) | 5 (90% or more of herbicidal effect and crop phytotoxicity) | 5 (90% or more of herbicidal effect and crop phytotoxicity) | 5 (90% or more of herbicidal effect and crop phytotoxicity) | 5 (90% or more of herbicidal effect and crop phytotoxicity) | – | – | – | – | 5 (90% or more of herbicidal effect and crop phytotoxicity) | 5 (90% or more of herbicidal effect and crop phytotoxicity) | 5 (90% or more of herbicidal effect and crop phytotoxicity) | 5 (90% or more of herbicidal effect and crop phytotoxicity) |
| CCSCn1c(C(F)(F)F)ccc(C(=O)C2=C(O)CCCC2=O)c1=O [I-48] | 5 (90% or more of herbicidal effect and crop phytotoxicity) | 5 (90% or more of herbicidal effect and crop phytotoxicity) | 5 (90% or more of herbicidal effect and crop phytotoxicity) | 5 (90% or more of herbicidal effect and crop phytotoxicity) | 4 (70 to less than 90% of herbicidal effect and crop phytotoxicity) | 5 (90% or more of herbicidal effect and crop phytotoxicity) | 5 (90% or more of herbicidal effect and crop phytotoxicity) | 5 (90% or more of herbicidal effect and crop phytotoxicity) | 5 (90% or more of herbicidal effect and crop phytotoxicity) | 5 (90% or more of herbicidal effect and crop phytotoxicity) | 5 (90% or more of herbicidal effect and crop phytotoxicity) | – | – | – | – |
